Drawing on PubChem BioAssay (NCI), this text covers TGI for 13 molecules.

SMILES strings stand for the structures.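 All cell lines were grown in 96-well plates and treated with compound for 48 hours. The concentration for full growth arrest is given as TGI.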 *1 amine or outer side, *2 acyl side, *3 side chain or, on linkers, in order; H or OH if unused. Where a SMILES comes first, the peptide text is derived from it. [ ]: non-standard residue; d: D form. ξ: configuration not given here. X22 = O=C(C(CC(O)CO)O[*:1])[*:2]; Ile(3ξ) = CCC(C)[C@H](N)C(=O)O; NMeV = CN[C@H](C(=O)O)C(C)C; NMeA = CN[C@@H](C)C(=O)O; βAla = NCCC(=O)O

Among the test systems are 786-0 renal; COLO 205 colon; EKVX NSCLC; HCT-116 colon; HCT-15 colon; HOP-92 NSCLC; KM12 colon; M14 melanoma; M19-MEL melanoma; NCI-H23 lung; RPMI-8226 leukemia; SF-295 CNS; SK-MEL-5 melanoma; SN12C renal; SNB-75 CNS; UACC-62 melanoma; UO-31 renal.
Test in all cases: NCI tumour cell line growth inhibition, 48 h

With `CCOC(=O)C1=C(c2ccccc2)N(C(C)=O)Cc2ccccc21`, the TGI in the assay on 786-0 renal was greater than 100 µM; with COLO 205 colon, 32 µM; with EKVX NSCLC, greater than 100 µM; in the assay with HCT-116 colon it was 30.2 µM; in the assay on HCT-15 colon, greater than 100 µM; in the assay with HOP-92 NSCLC, 20.7 µM. In addition, the TGI amounted to 30.3 µM in the assay with KM12 colon; 35 µM in the assay on M14 melanoma; 39.3 µM with M19-MEL melanoma; 34.5 µM with NCI-H23 lung; 38.7 µM in the assay on RPMI-8226 leukemia; 37.8 µM in the assay with SF-295 CNS. Besides, the TGI with SK-MEL-5 melanoma was 25.1 µM; in the assay on SN12C renal, 77.1 µM; in the assay with SNB-75 CNS, 77.1 µM; in the assay on UACC-62 melanoma, 25.5 µM; in the assay on UO-31 renal, greater than 100 µM.
Take `C[N+]1(C)C[C@@H](O)C[C@@H]1C(=O)[O-]`: the TGI in the assay with 786-0 renal, in the assay on COLO 205 colon, in the assay with EKVX NSCLC, in the assay on HCT-116 colon, in the assay with HCT-15 colon and in the assay on HOP-92 NSCLC was greater than 100 µM each time. Moreover, the TGI with KM12 colon, in the assay on M14 melanoma, in the assay with M19-MEL melanoma, in the assay on NCI-H23 lung, in the assay with RPMI-8226 leukemia and in the assay with SF-295 CNS was greater than 100 µM in each case. The TGI in the assay on SN12C renal, with SNB-75 CNS, with UACC-62 melanoma and in the assay with UO-31 renal was greater than 100 µM each time.
Take `CCOC(=O)c1c2ccc(/C=C/c3ccccc3)ccc-2c(C(=O)OCC)c1N`: the TGI in the assay with 786-0 renal, in the assay on COLO 205 colon, in the assay on EKVX NSCLC, with HCT-116 colon, in the assay with HCT-15 colon and in the assay with HOP-92 NSCLC was greater than 100 µM in each case. Besides, the TGI in the assay on KM12 colon, in the assay on M14 melanoma, in the assay with M19-MEL melanoma, in the assay with NCI-H23 lung, in the assay with SF-295 CNS and with SK-MEL-5 melanoma was greater than 100 µM in each case. Besides, the TGI in the assay on SNB-75 CNS is 99.4 µM; in the assay on UACC-62 melanoma, greater than 100 µM; with UO-31 renal it was greater than 100 µM.
Take `N#Cc1cn(-c2c3ccccc3nc3ccccc23)c(=O)[nH]c1=O`: the TGI in the assay on 786-0 renal was 13.5 µM; in the assay with COLO 205 colon, 64.3 µM; in the assay with EKVX NSCLC, 38.1 µM; in the assay on HCT-116 colon, greater than 100 µM; in the assay with HCT-15 colon, 31.9 µM; with HOP-92 NSCLC, 23.1 µM. In addition, the TGI in the assay on KM12 colon stood at 79.5 µM; with M14 melanoma, 28.5 µM; in the assay with M19-MEL melanoma, 46.1 µM; with RPMI-8226 leukemia, 75.8 µM; with SF-295 CNS, 23.8 µM; in the assay with SNB-75 CNS it was 33.3 µM. For the same molecule, the results for the TGI in the assay on UACC-62 melanoma and in the assay on UO-31 renal were 38.8 µM and 25 µM, respectively.
Turning to `Cc1ccc2nc3c(C)cc(=O)cc-3sc2c1`, the TGI in the assay with 786-0 renal is 35.4 µM; in the assay on COLO 205 colon it was 72.2 µM; in the assay with EKVX NSCLC it was 66.4 µM; in the assay with HCT-116 colon, 34.2 µM; in the assay on HCT-15 colon, 40.9 µM; in the assay on HOP-92 NSCLC it was 76.7 µM. Further, the TGI with KM12 colon is 65.4 µM; in the assay with M14 melanoma, 42.4 µM; in the assay with M19-MEL melanoma, 31 µM; in the assay on NCI-H23 lung, 52.8 µM; with SF-295 CNS it was greater than 100 µM; in the assay on SK-MEL-5 melanoma it was 29 µM. In addition, the TGI in the assay on SN12C renal came to 48.8 µM; with SNB-75 CNS, 69.2 µM; with UACC-62 melanoma it was 29 µM; in the assay on UO-31 renal, 83.9 µM.
For the molecule `COC(=O)C(Cc1nc2ccccc2[nH]c1=O)C(=O)C(=O)Nc1ccc(F)cc1` (configuration not stated), the TGI was 58.8 µM in the assay on 786-0 renal; greater than 100 µM with COLO 205 colon; greater than 100 µM in the assay on EKVX NSCLC; greater than 100 µM in the assay on HCT-116 colon; greater than 100 µM in the assay on HCT-15 colon; 56.4 µM in the assay on HOP-92 NSCLC. Besides, the TGI in the assay with KM12 colon, with M14 melanoma, in the assay with M19-MEL melanoma, with NCI-H23 lung, with SF-295 CNS and with SK-MEL-5 melanoma was greater than 100 µM in each case. For the same molecule, the TGI in the assay with SN12C renal was greater than 100 µM; with SNB-75 CNS, greater than 100 µM; in the assay on UACC-62 melanoma it was 67.8 µM; with UO-31 renal, greater than 100 µM.
Consider `CCC(C)[C@@H]1NC(=O)[C@@H]2CCCN2C(=O)C(CC(O)CO)OC(=O)CCNC(=O)[C@H](C)N(C)C(=O)[C@H](C(C)C)N(C)C1=O` (some centres not stated) (cyclo([Ile(3ξ)][NMeV][NMeA][βAla][X22]P)), for which the TGI with 786-0 renal, in the assay with COLO 205 colon, in the assay on HCT-116 colon, with HCT-15 colon, with HOP-92 NSCLC and with KM12 colon was greater than 100 µM each time. Further, the TGI in the assay on M14 melanoma, in the assay on M19-MEL melanoma, with NCI-H23 lung, in the assay with RPMI-8226 leukemia, in the assay with SF-295 CNS and in the assay with SK-MEL-5 melanoma was greater than 100 µM in each case. The TGI in the assay with SN12C renal, with SNB-75 CNS, in the assay with UACC-62 melanoma and in the assay with UO-31 renal was greater than 100 µM throughout.
As to `Cc1nc2ccc(N)cc2[nH]c1=O`, the TGI in the assay with 786-0 renal, in the assay with COLO 205 colon, in the assay with EKVX NSCLC, in the assay with HCT-116 colon, in the assay with HCT-15 colon and in the assay with HOP-92 NSCLC was greater than 100 µM each time. Also, the TGI with KM12 colon, in the assay on M14 melanoma, in the assay on M19-MEL melanoma, in the assay on RPMI-8226 leukemia, in the assay with SF-295 CNS and with SK-MEL-5 melanoma was greater than 100 µM each time. Further, the TGI with UACC-62 melanoma and in the assay on UO-31 renal was greater than 100 µM throughout.
For the molecule `C=C(C)CC(C)(c1cc2ccccc2n1C)N1CCOCC1` (configuration not stated), the TGI with 786-0 renal, with COLO 205 colon, in the assay with EKVX NSCLC, with HCT-116 colon, in the assay with HCT-15 colon and in the assay on HOP-92 NSCLC was greater than 100 µM throughout. Moreover, the TGI in the assay on KM12 colon, with M14 melanoma, in the assay on M19-MEL melanoma, in the assay with NCI-H23 lung, with SF-295 CNS and in the assay on SK-MEL-5 melanoma was greater than 100 µM in each case. The TGI in the assay on SN12C renal, in the assay on SNB-75 CNS, in the assay with UACC-62 melanoma and in the assay with UO-31 renal was greater than 100 µM throughout.
On to `CCSc1nnc(-c2ccccc2)nc1Cc1ccc(OC)cc1`, for which the TGI in the assay with 786-0 renal, in the assay with COLO 205 colon, with EKVX NSCLC, in the assay on HCT-116 colon, in the assay on HCT-15 colon and with HOP-92 NSCLC was greater than 100 µM in each case. In addition, the TGI with KM12 colon, with M14 melanoma, in the assay on M19-MEL melanoma, in the assay on NCI-H23 lung, in the assay on RPMI-8226 leukemia and with SF-295 CNS was greater than 100 µM in each case. Moreover, the TGI in the assay on SN12C renal, with SNB-75 CNS, with UACC-62 melanoma and with UO-31 renal was greater than 100 µM throughout.
With `CSc1nc2nc(C(O)C(O)C(O)CO)cnc2c(=O)[nH]1` (configuration not stated), the TGI with 786-0 renal, with COLO 205 colon, in the assay with EKVX NSCLC, in the assay on HCT-116 colon, in the assay with HCT-15 colon and in the assay on KM12 colon was greater than 100 µM throughout. For the same molecule, the TGI with M14 melanoma, with M19-MEL melanoma, in the assay on NCI-H23 lung, in the assay on RPMI-8226 leukemia, with SF-295 CNS and in the assay with SK-MEL-5 melanoma was greater than 100 µM in each case. Besides, the TGI with SN12C renal, in the assay with SNB-75 CNS, in the assay with UACC-62 melanoma and in the assay with UO-31 renal was greater than 100 µM each time.
Take `COC(=O)/C(=N/NC(C)(C)C)C(C(=O)OC)C(=O)C(=O)Nc1nc2ccc([N+](=O)[O-])cc2s1` (configuration not stated): the TGI in the assay with 786-0 renal, in the assay with COLO 205 colon, in the assay with EKVX NSCLC, in the assay with HCT-116 colon, with HCT-15 colon and in the assay with KM12 colon was greater than 100 µM each time. For the same molecule, the TGI in the assay on M14 melanoma, with M19-MEL melanoma, in the assay with NCI-H23 lung, with RPMI-8226 leukemia, with SF-295 CNS and in the assay with SK-MEL-5 melanoma was greater than 100 µM each time. The TGI in the assay on SN12C renal, with UACC-62 melanoma and with UO-31 renal was greater than 100 µM throughout.
For `COc1c(C)c(O)c2c(c1C)OC(c1ccccc1)CC2=O` (configuration not stated), the TGI with 786-0 renal, in the assay with EKVX NSCLC, with HCT-116 colon, with HCT-15 colon, in the assay with HOP-92 NSCLC and in the assay with KM12 colon was greater than 100 µM each time. For the same molecule, the TGI in the assay with M14 melanoma, in the assay with M19-MEL melanoma, in the assay on NCI-H23 lung, with RPMI-8226 leukemia, in the assay on SF-295 CNS and in the assay with SN12C renal was greater than 100 µM each time. Moreover, the TGI with SNB-75 CNS, in the assay on UACC-62 melanoma and in the assay with UO-31 renal was greater than 100 µM throughout.
